Data as given in patent publication US20210052701A1, “Methods of Treating Vascular Leakage Using CXCL12 Peptides” (The Medical College of Wisconsin, Inc., priority 2018, published 2021).

What was measured:
hPPAEC [1] = experiment: Effects of CXCR4 agonists / CXCL12 variants on thrombin-induced impairment of hPPAEC monolayer permeability; format: cell-based, human
Method: FIGS. 3A-3D show effects of CXCL12 and ubiquitin on thrombin-induced impairment of hPPAEC monolayer permeability. hPPAEC were grown to a confluent monolayer on collagen-coated permeable membranes. (A) hPPAEC were pre-treated with vehicle, 100 nM of CXCL12 or ubiquitin for 10 minutes, as indicated, and then exposed to thrombin (50 nM), followed by the addition of FITC-dextran. Vehicle: no thrombin. Endothelial permeability was assessed by measuring the amount of FITC-dextran that permeated through the cell monolayer. No cells: 100% permeability (open circles). RFU: Relative fluorescence units. N=3 in quadruplicate. *: p<0.05 vs. vehicle/thrombin. (B-D) hPPAEC were exposed to 35 nM of thrombin or vehicle. After 10 min, thrombin-exposed cells were treated with vehicle, CXCL12 (50 nM) and/or AMD3100 (10 μM) (B), with vehicle, ubiquitin (50 nM) and/or AMD3100 (10 μM) (C) or with various concentrations of ubiquitin (D) followed by the addition of FITC-dextran. The experimental conditions are indicated. Endothelial permeability was assessed by measuring the amount of FITC-dextran that permeated through the cell monolayer. RFU: Relative fluorescence units. N=3 in quadruplicate. *: p<0.05 vs. thrombin/vehicle (2-way ANOVA/Bonferroni's multiple comparison post hoc test).
(§1) FIGS. 7A-7D show dose-dependent effects of CXCL12α/β, CXCL12 (3-68) and CXCL12 mutants K27A/R41A/R47A, R47E and S-S4V on thrombin-induced impairment of hPPAEC monolayer permeability. hPPAEC cells were grown to a confluent monolayer on collagen-coated permeable membranes. hPPAEC were then exposed to 35 nM of thrombin. After 10 min, thrombin-exposed cells were treated with vehicle or 50 nM (A), 5 nM (B), 0.5 nM (C) or 0.05 nM (D) of the various proteins, as indicated. In (D) 5 nM CXCL12a was used as a positive control. N=3 in quadruplicate.
as §1, with “8A-8D” for “7A-7D”, “CXCL12α, CXCL121” for “CXCL12α/β, CXCL12 (3-68)”, “CXCL122” for “CXCL12 mutants K27A/R41A/R47A, R47E and S-S4V”, “CXCL12α” for “CXCL12a”
FIGS. 9A-9B show inhibition of thrombin-induced hyper-permeability of hPPAEC by CXCL12/CXCL12 variants. % inhibition: % inhibition of thrombin-induced hyperpermeability. Data from FIGS. 7 and 8 at t=255 min. N=3 in quadruplicate. *: p<0.05 vs. CXCL12a (2-way ANOVA/Bonferroni's multiple comparison post hoc test).
(§2) In vitro vascular permeability assays—Permeability assays were obtained from Millipore (ECM642) and performed as per manufacturer's instructions. In brief, 96-well collagen-coated permeability assay plates were pre-hydrated for 15 min, 5×10^5 cells were seeded on each well and grown to a confluent monolayer for 48 hours. Fluorescein isothiocyanate (FITC)-dextran (20 μg/mL) was then added on top of the monolayer and the amount of FITC-dextran that permeated through the monolayer was quantified by measuring fluorescence in a Synergy 2 Multi-mode Microplate Reader (BioTek, Winooski, Vt.) at various time points over a 255 min time period.

hPPAEC [2] = experiment: In vitro vascular permeability assay (FITC-dextran), hPPAEC monolayer, CXCR4/ACKR3 ligands without thrombin; format: cell-based, human; conditions: 50 nM ligand for 10 min, then FITC-dextran; no thrombin
Method: FIGS. 1A-1B show expression of CXCR4, ACKR3 and CXCR4:ACKR3 heteromers on hPPAEC and effects of CXCR4/ACKR3 ligands on hPPAEC monolayer permeability. (A) Detection of CXCR4, ACKR3 and CXCR4:ACKR3 heteromers on hPPAEC by PLA. Typical PLA images for the detection of individual receptors and CXCR4:ACKR3 heteromers. Images show merged PLA/40,6-diamidino-2-phenylindole dihydrochloride (DAPI) signals. Ctrl: Omission of one secondary antibody. (B) hPPAEC were grown to a confluent monolayer on collagen-coated permeable membranes. Cells were then exposed to vehicle or 50 nM of CXCR4/ACKR3 ligands for 10 minutes, as indicated, followed by the addition of FITC-dextran. Endothelial permeability was assessed by measuring the amount of FITC-dextran that permeated through the cell monolayer. N=3 in quadruplicate. No cells: 100% permeability, open squares. RFU: Relative fluorescence units. *: p<0.05 vs. vehicle (2-way ANOVA/Bonferroni's multiple comparison post hoc test).
Cells and cell lines—Human primary pulmonary artery endothelial cells (hPPAEC) (ATCC, PCS-100-022) and the human lung microvascular endothelial cell line HULEC-5a (ATCC, CRL-3244) were cultured in vascular cell basal medium (ATCC, PCS-100-030) with endothelial cell growth kit-VEGF (ATCC, PCS-100-041). The HTLA cell line, a HEK293 cell line stably expressing a tTA-dependent luciferase reporter and a β-arrestin2-TEV fusion gene, was generously provided by the laboratory of Dr. Bryan Roth and maintained in high glucose Dulbecco's Modified Eagle's Medium supplemented with 10% (vol/vol) FBS, 1× non-essential amino acids, 100 U/mL penicillin, 100 μg/mL streptomycin, 50 μg/mL hygromycin B, and 2 μg/mL puromycin. All cells were cultured at 37° C., 5% CO2 in a humidified atmosphere.
as §2

CXCR4 = molecular target: T1, CXCR4 (Homo sapiens, UniProt P61073); experiment: Presto-Tango β-arrestin 2 recruitment assay for CXCR4; format: cell-based
T1 construct: host or cells: HTLA cells (HEK293 line stably expressing a tTA-dependent luciferase reporter and a β-arrestin2-TEV fusion gene)
T1 sequence (P61073 whole entry, the tested form may be a part): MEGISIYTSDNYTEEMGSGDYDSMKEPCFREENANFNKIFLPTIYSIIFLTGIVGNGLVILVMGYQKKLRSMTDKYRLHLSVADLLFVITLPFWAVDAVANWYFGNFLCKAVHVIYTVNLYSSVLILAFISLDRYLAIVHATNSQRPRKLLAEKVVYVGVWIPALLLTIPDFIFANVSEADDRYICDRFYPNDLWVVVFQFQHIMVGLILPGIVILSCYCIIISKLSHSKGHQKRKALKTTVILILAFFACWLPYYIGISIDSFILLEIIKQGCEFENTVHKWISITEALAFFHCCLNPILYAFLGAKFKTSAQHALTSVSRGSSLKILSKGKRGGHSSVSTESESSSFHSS
Method: FIGS. 6A-6F show Presto-Tango β-arrestin 2 recruitment assays for CXCR4 (A-C) and ACKR3 (D-F). RLU %: % of the luminescence signal for 1 μM CXCL12α. N=9 for CXCL12a and n=3 for all other proteins.
Presto-Tango β-arrestin 2 recruitment assay—The PRESTO-Tango (parallel receptorome expression and screening via transcriptional out-put, with transcriptional activation following arrestin translocation) assay was performed as recently described. The Tango plasmids were a gift from Dr. Bryan Roth (all from Addgene). HTLA cells (2.5×10^5/well) were seeded in a 6-well plate and transfected with 1.5 μg of the Tango plasmids using Lipofectamine 3000 (ThermoScientific). The following day, transfected HTLA cells (1×10^5 cells/well) were plated onto Poly-L-Lysine pre-coated 96-well micro-plates and allowed to attach to the plate surface for at least 4 hours prior to treatment. Proteins used for treatment were prepared in twice the final concentration in culture media, added at a 1:1 vol/vol ratio and incubated overnight at 37° C., 5% CO2 in a humidified environment. The following morning, media was removed from cell culture plates and replaced with a 100 μL 1:5 mixture of Bright-Glo (Promega) and 1×HBSS, 20 mM HEPES solution. Plates were then incubated at room temperature before measuring luminescence on a Biotek Synergy II plate reader.

[3] = system: animal model of acute respiratory distress syndrome (ARDS); experiment: Animal model of ARDS: lung ischemia reperfusion injury plus hemorrhage (P:F ratio, lung injury score); format: in vivo, Sprague-Dawley rats; conditions: for development of ARDS (P:F ratio): 0.14 μmol/kg i.v. within 10 min after reperfusion, until t=300 min; for histological signs of lung injury, injured lung (lung injury score): H&E sections, vs. vehicle
Method: Animals underwent 70 min of […] lung ischemia for 70 min plus hemorrhage to a MAP of 40 mmHg for the last 30 min of ischemia, followed by fluid resuscitation to a MAP of 60 mmHg until t=300 min. Arrow: drug injection. Dashed lines indicate the P:F ratio (mmHg) threshold values for the diagnosis of mild, moderate and severe ARDS. Vehicle: n=5. CXCL12: n=3. CXCL12: n=4. CXCL12-LM: n=3, CXCL12-LD: n=4. CXCL12 K27A/R41A/R47A: n=3. LI+HEM: lung ischemia reperfusion injury plus hemorrhage. Data are mean±SEM. *: p<0.05 vs. vehicle (2-way ANOVA/Dunnett's multiple comparisons test).
FIGS. 12A-12C show lung histology after treatment with CXCL12 and engineered CXCR4 agonists A. Lung specimens were placed in formalin fixative solution and were then embedded in paraffin wax, sliced into 5 μm sections and stained with H&E. Representative images from H&E stained lung sections from animals after vehicle (left) and CXCL12 ([…], right treatment. B/C. Lung injury scores (B. uninjured (left) lung; C. injured (right) lung). Data are median±interquartile ranges. Data were analyzed with the Kruskal Wallis test with Dunn's multiple comparisons test. The level of statistical significance (p) vs. ctrl. (vehicle treatment) indicated.
We tested therapeutic efficacy of wild-type CXCL12, CXXL12-locked dimer (LD), CXCL12-locked monomer (LM) and the triple mutant CXCL12 K27A/R41A/R47A in an animal model of acute respiratory distress syndrome (ARDS) (FIG. 11). All drugs were injected in a dose of 0.14 μmol/kg. Male Sprague-Dawley rats were anesthetized, orotracheally intubated, instrumented with arterial/venous catheters, and mechanically ventilated (PEEP 2 mmHg, FiO2 1.0). After a right lateral thoracotomy, a suture was tied around the hilum of the right lung. Animals underwent 70 min of right lung ischemia plus hemorrhage to a mean arterial blood pressure (MAP) of 40 mmHg for the last 30 min of lung ischemia. At t=70 min, the suture was removed, animals were ventilated with FiO2 1.0, PEEP 5 mmHg and resuscitated with crystalloids to a MAP of 60 mmHg until t=300 min. Vehicle and drugs were injected i.v. within 10 min after reperfusion.
We further evaluated histomorphology of the lungs from animals treated with vehicle, wild-type CXCL12, CXCL12-LD and CXCXL12-LM utilizing a standardized lung injury score. Lung slides stained with hematoxylin and eosin were examined under a light microscope by 4 investigators blinded to the identity of the specimens. The lung injury score was assessed as previously described/. In brief each investigator rendered a score of 0 (no damage) to 4+(maximal damage) based on an injury grading scale composed of six criteria. The slides were assessed for the extent of alveolar congestion, hemorrhage and edema, as well as alveolar and vessel wall PMN infiltration and alveolar wall thickness. […] Lung injury scores of the uninjured and injured lungs from animals treated with vehicle, wild-type CXCL12, CXCL12-LD and CXCXL12-LM are shown in FIGS. […], respectively.

Row | potency (EC50) to recruit β-arrestin 2 to CXCR4, compared with CXCL12α (CXCR4) | Molecule | effect on thrombin-induced permeability of hPPAEC when added after thrombin (hPPAEC [1]; thrombin 35 nM, after 10 min CXCL12 or ubiquitin 50 nM, AMD3100 10 μM) | antagonism of the CXCL12 effect on thrombin-induced permeability (hPPAEC [1]; thrombin 35 nM, CXCL12 50 nM plus AMD3100 10 μM) | effect on hPPAEC monolayer permeability (hPPAEC [2]) | development of ARDS (P:F ratio) [3] | histological signs of lung injury, injured lung (lung injury score) [3] | potency to attenuate thrombin-induced permeability of hPPAEC (in words) (hPPAEC [1]) | concentration at which thrombin-mediated hPPAEC barrier impairment was affected (hPPAEC [1]; tested 0.05-50 nM, t=255 min)
1 |  | c1cc(CN2CCCNCCNCCCNCC2)ccc1CN1CCCNCCNCCCNCC1 [AMD3100] | did not affect thrombin-mediated hyper-permeability of hPPAEC | could be antagonized | did not affect hPPAEC permeability |  |  |  | 
2 | no statistically significant differences | CXCL121: constitutively monomeric CXCL12 variant with L55C and I58C substitutions (SEQ ID NO:2) |  |  |  | prevented development of ARDS | significantly reduced |  | 
3 | no statistically significant differences | CXCL122: constitutively dimeric, disulfide-locked CXCL12 variant containing L36C/A65C mutations (SEQ ID NO:3) |  |  |  | prevented development of ARDS | significantly reduced | significantly reduced potency | 50 nM
4 |  | CXCL11: an ACKR3 and CXCR3 agonist (protein, UniProt O14625 22-94, looked up) C-X-C motif chemokine 11: FPMFKRGRCLCIGPGVKAVKVADIEKASIMYPSNNCDKIEVIITLKENKGQRCLNPKSKQARLIIKKVERKNF |  |  | did not affect hPPAEC permeability |  |  |  | 
